# Test results from ChEMBL document CHEMBL3797106, “Potent and Selective Agonists of Sphingosine 1-Phosphate 1 (S1P1): Discovery and SAR of a Novel Isoxazole Based Series” (J Med Chem, 2016).
# Calls of active or inactive are those of the source. The rule behind the calls is not given here.
# Columns and labels:
# [1] = Oral bioavailability in rat at 5 mg/kg; type: ADME, organism-based; settings: in vivo
# [2] = Tmax in cynomolgus monkey at 5 mg/kg, po; type: ADME, organism-based, Macaca fascicularis; settings: in vivo
# [3] = Clearance in cynomolgus monkey at 2 mg/kg, iv; type: ADME, organism-based, Macaca fascicularis; settings: in vivo
# Rattus norvegicus [4] = test: Reduction of blood lymphocyte level in Lewis rat at 0.03 mg/kg, po measured at 24 hrs by hematology analyzer relative to vehicle-treated control; type: functional; parameters: scale not given: the % may be the effect or the level left
# [5] = Cmax in cynomolgus monkey at 5 mg/kg, po; type: ADME, organism-based, Macaca fascicularis; parameters: dose 5 mg/kg, route oral; settings: in vivo
# Mus musculus [6] = test: Oral bioavailability in mouse at 10 mg/kg; type: ADME, organism-based; settings: in vivo
# Cynomolgus monkey = test: Clearance in cynomolgus monkey at 2 mg/kg, iv relative to hepatic blood flow; type: ADME, organism-based, Macaca fascicularis; settings: in vivo
# [7] = Volume of distribution at steady state in dog at 1 mg/kg, iv; type: ADME, organism-based, Canis lupus familiaris; settings: in vivo, read-out: Vdss
# [8] = Permeability of the compound at pH 7.4 by PAMPA; type: ADME; settings: read-out: permeability
# Plasma [9] = test: Ratio drug level in Lewis rat plasma at 0.03 mg/kg, po at 4 hrs to drug level in Lewis rat plasma at 0.03 mg/kg, po at 24 hrs; type: ADME, organism-based; settings: in vivo
# Rattus norvegicus [10] = test: Antiarthritic activity in complete Freund's adjuvant-induced Lewis rat arthritis model assessed as suppression of paw swelling at 0.1 mg/kg, po qd for 21 days started from day of immunization measured 3 times per week of compound dosing by water displacement plethysmometry relative to control; type: functional
# [11] = Cmax in rat at 5 mg/kg, po; type: ADME, organism-based; parameters: dose 5 mg/kg, route oral; settings: in vivo
# [12] = Plasma concentration in Lewis rat at 1 mg/kg, po measured at 4 hrs; type: ADME, organism-based
# Cytochrome P450 2C19 = Cytochrome P450 2C19 (Homo sapiens, UniProt P33261); test: Inhibition of CYP2C19 (unknown origin); type: ADME
# [13] = Tmax in mouse at 10 mg/kg, po; type: ADME, organism-based; settings: in vivo
# [14] = Plasma protein binding in rat; type: ADME, cell-free; settings: read-out: PPB (converted)
# [15] = Oral bioavailability in dog at 1 mg/kg; type: ADME, organism-based, Canis lupus familiaris; settings: in vivo
# [16] = Plasma protein binding in human; type: ADME, cell-free; settings: read-out: PPB (converted)
# [17] = Lipophilicity, log D of the compound at pH 6.5; type: physicochemical; settings: buffer
# [18] = Plasma concentration in Lewis rat at 0.03 mg/kg, po measured at 4 hrs; type: ADME, organism-based
# Rattus norvegicus [19] = test: Antiarthritic activity in po dosed complete Freund's adjuvant-induced Lewis rat arthritis model assessed as suppression of paw swelling administered as qd for 21 days started from day of immunization measured 3 times per week of compound dosing by water displacement plethysmometry; type: functional; settings: 504 h
# [20] = Volume of distribution at steady state in rat at 2 mg/kg, iv; type: ADME, organism-based; settings: in vivo, read-out: Vdss
# Plasma [21] = test: Ratio drug level in Lewis rat plasma at 0.3 mg/kg, po at 4 hrs to drug level in Lewis rat plasma at 0.3 mg/kg, po at 24 hrs; type: ADME, organism-based; settings: in vivo
# Mus musculus [22] = test: Ratio of Cmax to Cmin in mouse at 10 mg/kg, po; type: ADME, organism-based; settings: in vivo
# [23] = Half life in cynomolgus monkey at 2 mg/kg, iv; type: ADME, organism-based, Macaca fascicularis; settings: in vivo
# Salmonella typhi = test: Mutagenicity in Salmonella typhi by Ames test; type: toxicity, organism-based; settings: salmonella enterica subsp. enterica […]
# [24] = molecular target: Voltage-gated inwardly rectifying potassium channel KCNH2 (Homo sapiens, UniProt Q12809); test: Inhibition of human ERG by patch clamp method
# Homo sapiens [25] = species: Homo sapiens; test: Selectivity ratio of EC50 for human S1P3 receptor to EC50 for human S1P1 receptor
# Homo sapiens [26] = species: Homo sapiens; test: Inhibition of calcium channel (unknown origin) at 10 uM by patch clamp method relative to control
# Rattus norvegicus [27] = test: Reduction of blood lymphocyte level in Lewis rat at 0.3 mg/kg, po measured at 4 hrs by hematology analyzer relative to vehicle-treated control; type: functional; parameters: scale not given: the % may be the effect or the level left
# Homo sapiens [28] = species: Homo sapiens; test: Inhibition of sodium channel (unknown origin) at 10 uM by patch clamp method relative to control
# Mus musculus [29] = test: Reduction in overall disease severity in po dosed C57BL/6 mouse experimental autoimmune encephalomyelitis model of multiple sclerosis administered as qd for 24 days started from day of immunization measured 3 times per week of compound dosing; type: functional, organism-based
# [30] = Plasma concentration in Lewis rat at 0.3 mg/kg, po measured at 24 hrs; type: ADME, organism-based
# Rattus norvegicus [31] = test: Reduction of blood lymphocyte level in po dosed Lewis rat measured at 4 to 24 hrs by hematology analyzer; type: functional, organism-based
# [32] = Clearance in dog at 1 mg/kg, iv; type: ADME, organism-based, Canis lupus familiaris; settings: in vivo
# [33] = Clearance in rat at 2 mg/kg, iv; type: ADME, organism-based; settings: in vivo
# Rattus norvegicus [34] = test: Reduction of blood lymphocyte level in Lewis rat at 1 mg/kg, po measured at 24 hrs by hematology analyzer relative to vehicle-treated control; type: functional; parameters: scale not given: the % may be the effect or the level left
# [35] = Volume of distribution at steady state in mouse at 2 mg/kg, iv; type: ADME, organism-based; settings: in vivo, read-out: Vdss
# Canis familiaris = test: Clearance in dog at 1 mg/kg, iv relative to hepatic blood flow; type: ADME, organism-based, Canis lupus familiaris, Liver; settings: in vivo
# Cytochrome P450 2B6 = molecular target: T1, Cytochrome P450 2B6 (Homo sapiens, UniProt P20813); test: Inhibition of CYP2B6 (unknown origin); type: ADME
# T1 sequence (P20813 whole entry): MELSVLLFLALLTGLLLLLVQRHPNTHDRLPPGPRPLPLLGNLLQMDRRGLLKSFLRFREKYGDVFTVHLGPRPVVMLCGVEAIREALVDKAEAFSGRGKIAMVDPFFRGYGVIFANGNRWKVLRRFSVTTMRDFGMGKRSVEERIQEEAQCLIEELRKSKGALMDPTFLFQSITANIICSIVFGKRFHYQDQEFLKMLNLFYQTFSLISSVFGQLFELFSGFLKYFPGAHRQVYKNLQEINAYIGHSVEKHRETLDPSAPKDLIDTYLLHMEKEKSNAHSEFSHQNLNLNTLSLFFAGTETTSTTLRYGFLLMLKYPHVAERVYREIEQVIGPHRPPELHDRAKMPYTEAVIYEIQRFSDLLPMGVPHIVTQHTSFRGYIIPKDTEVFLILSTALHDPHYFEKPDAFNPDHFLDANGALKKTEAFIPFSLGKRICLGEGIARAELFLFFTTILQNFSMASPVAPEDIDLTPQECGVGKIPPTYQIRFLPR
# Rattus norvegicus [36] = test: Clearance in rat at 2 mg/kg, iv relative to hepatic blood flow; type: ADME, organism-based; settings: in vivo
# Rattus norvegicus [37] = test: Antiarthritic activity in po dosed complete Freund's adjuvant-induced Lewis rat arthritis model assessed as inhibition of bone resorption administered as qd for 21 days started from day of immunization; type: functional, organism-based
# [38] = AUC in rat at 5 mg/kg, po; type: ADME, organism-based; settings: in vivo
# Plasma [39] = test: Ratio drug level in Lewis rat plasma at 1 mg/kg, po at 4 hrs to drug level in Lewis rat plasma at 1 mg/kg, po at 24 hrs; type: ADME, organism-based; settings: in vivo
# [40] = Cmax in dog at 1 mg/kg, po; type: ADME, organism-based, Canis lupus familiaris; parameters: dose 1 mg/kg, route oral; settings: in vivo
# [41] = Cmax in mouse at 10 mg/kg, po; type: ADME, organism-based; parameters: dose 10 mg/kg, route oral; settings: in vivo
# [42] = Half life in rat at 2 mg/kg, iv; type: ADME, organism-based; settings: in vivo
# Rattus norvegicus [43] = test: Antiarthritic activity in complete Freund's adjuvant-induced Lewis rat arthritis model assessed as suppression of paw swelling at 0.5 to 3 mg/kg, po qd for 21 days started from day of immunization measured 3 times per week of compound dosing by water displacement plethysmometry; type: functional, organism-based
# Sequence of Cytochrome P450 2C19 (P33261 whole entry): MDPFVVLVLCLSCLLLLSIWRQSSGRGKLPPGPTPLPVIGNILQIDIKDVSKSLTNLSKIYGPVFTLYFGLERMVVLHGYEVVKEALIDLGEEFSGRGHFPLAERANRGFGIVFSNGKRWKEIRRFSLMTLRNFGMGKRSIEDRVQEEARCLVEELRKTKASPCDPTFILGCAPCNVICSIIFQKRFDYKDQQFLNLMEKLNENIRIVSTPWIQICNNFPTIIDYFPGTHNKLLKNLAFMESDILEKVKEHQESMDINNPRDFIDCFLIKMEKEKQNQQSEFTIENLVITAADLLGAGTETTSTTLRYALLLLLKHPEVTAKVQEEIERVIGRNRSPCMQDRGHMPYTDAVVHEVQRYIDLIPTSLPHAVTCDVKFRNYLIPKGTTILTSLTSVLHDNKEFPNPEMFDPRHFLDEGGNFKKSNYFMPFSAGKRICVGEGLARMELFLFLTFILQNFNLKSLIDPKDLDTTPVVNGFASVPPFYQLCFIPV
# Sequence of Voltage-gated inwardly rectifying potassium channel KCNH2 (Q12809 whole entry): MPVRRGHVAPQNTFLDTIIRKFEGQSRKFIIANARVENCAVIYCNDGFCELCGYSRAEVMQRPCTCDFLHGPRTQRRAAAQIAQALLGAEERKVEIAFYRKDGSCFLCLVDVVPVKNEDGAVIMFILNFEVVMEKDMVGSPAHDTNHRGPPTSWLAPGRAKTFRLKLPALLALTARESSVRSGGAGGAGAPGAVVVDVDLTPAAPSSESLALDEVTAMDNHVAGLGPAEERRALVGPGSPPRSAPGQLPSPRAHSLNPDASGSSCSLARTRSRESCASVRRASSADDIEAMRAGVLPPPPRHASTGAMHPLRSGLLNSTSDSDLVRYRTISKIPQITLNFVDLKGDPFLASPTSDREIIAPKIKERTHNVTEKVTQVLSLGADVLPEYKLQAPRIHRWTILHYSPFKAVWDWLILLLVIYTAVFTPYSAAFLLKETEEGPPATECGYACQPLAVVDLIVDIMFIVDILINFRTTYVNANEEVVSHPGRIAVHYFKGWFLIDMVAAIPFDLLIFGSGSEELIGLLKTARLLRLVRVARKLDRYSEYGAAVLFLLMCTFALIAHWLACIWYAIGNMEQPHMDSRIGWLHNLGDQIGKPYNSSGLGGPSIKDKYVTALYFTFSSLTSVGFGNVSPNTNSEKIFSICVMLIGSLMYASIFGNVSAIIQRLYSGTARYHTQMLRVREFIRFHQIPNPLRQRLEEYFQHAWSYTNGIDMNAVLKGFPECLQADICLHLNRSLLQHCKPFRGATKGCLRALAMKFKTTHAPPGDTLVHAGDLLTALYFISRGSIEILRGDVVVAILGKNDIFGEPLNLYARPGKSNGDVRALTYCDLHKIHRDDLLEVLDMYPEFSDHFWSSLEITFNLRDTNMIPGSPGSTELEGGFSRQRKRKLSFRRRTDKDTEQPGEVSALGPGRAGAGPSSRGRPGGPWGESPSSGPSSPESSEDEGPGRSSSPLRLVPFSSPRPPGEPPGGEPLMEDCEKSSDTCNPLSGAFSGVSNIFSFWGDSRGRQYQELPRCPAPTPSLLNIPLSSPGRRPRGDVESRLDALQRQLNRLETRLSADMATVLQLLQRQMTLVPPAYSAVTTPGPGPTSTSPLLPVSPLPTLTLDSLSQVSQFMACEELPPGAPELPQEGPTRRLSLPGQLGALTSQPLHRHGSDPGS
structure (smiles),measurement,setting,value
O=C(O)C1CN(Cc2ccc(-c3noc(-c4onc(-c5ccccc5)c4C(F)(F)F)n3)cc2)C1,bioavailability,[1],52%
same,Tmax,[2],1 h
same,clearance,[3],5.2 mL/min/kg
same,Activity,Rattus norvegicus [4],45%
same,Cmax,[5],4000 nM
same,F,Mus musculus [6],71%
same,CL,Cynomolgus monkey,12%
same,Vd,[7],0.7 L/kg
same,Papp,[8],103 ×10⁻⁶ cm/s
same,Ratio,Plasma [9],5
same,Activity,Rattus norvegicus [10],>50%
same,Cmax,[11],3900 nM
same,concentration at 4 h,[12],2100 nM
same,IC50,Cytochrome P450 2C19,> 40 µM
same,Tmax,[13],3 h
same,fraction unbound,[14],0.006
same,bioavailability,[15],45%
same,fraction unbound,[16],0.003
same,logD,[17],2.68
same,concentration at 4 h,[18],20 nM
same,ED50,Rattus norvegicus [19],0.05 mg/kg
same,Vd,[20],1.4 L/kg
same,Ratio,Plasma [21],7
same,Ratio,Mus musculus [22],2
same,half-life,[23],3 h
same,Activity,Salmonella typhi,Non-toxic
same,IC50,[24],18 µM
same,Ratio EC50,Homo sapiens [25],3400
same,inhibition,Homo sapiens [26],12%
same,Activity,Rattus norvegicus [27],82%
same,inhibition,Homo sapiens [28],< 5%
same,Activity,Mus musculus [29],Dose-dependent effect
same,concentration at 24 h,[30],25 nM
same,Activity,Rattus norvegicus [31],Dose-dependent effect
same,clearance,[32],1.6 mL/min/kg
same,clearance,[33],1.7 mL/min/kg
same,Activity,Rattus norvegicus [34],91%
same,Vd,[35],0.2 L/kg
same,CL,Canis familiaris,5.2%
same,IC50,Cytochrome P450 2B6,> 40 µM
same,CL,Rattus norvegicus [36],2.4%
same,inhibition,Rattus norvegicus [37],Dose-dependent effect
same,AUC,[38],44 µM·h
same,Ratio,Plasma [39],3
same,Cmax,[40],1300 nM
same,Cmax,[41],31000 nM
same,half-life,[42],10 h
same,Activity,Rattus norvegicus [43],Active
